pIC50: −log10 of the molar value. Where “and” joins values, the source holds several entries; their conditions need not be identical. Equal entries are not always repeated.
System: 138582-337-R-J1-PDC complex spheroid viability
Experiment: Anticancer human tumor 138582-337-R-J1-PDC patient-derived Merkel cell tumor cell line growth inhibition
Conditions: for viability, T/C: stronger effect = lower value
Outline: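 Multicellular complex spheroids of tumor cells with human endothelial cells (HUVEC) and mesenchymal stem cells; the LSD1 inhibitor iadademstat was combined with standard-of-care or investigational agents. Top concentration at or near clinical Cmax, half-log dilutions; final DMSO ≤0.25%.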

[1] = curve of first compound, second compound 0.1 µM
[2] = curve of first compound, second compound 0.316 µM
[3] = curve of first compound, second compound 1 µM
[4] = curve of first compound, second compound 3.16 µM
[5] = curve of first compound, second compound 10 µM
[6] = second compound 0.1 µM, first compound 0.0316 µM
[7] = second compound 0.1 µM, first compound 0.1 µM
[8] = second compound 0.1 µM, first compound 0.316 µM
[9] = second compound 0.1 µM, first compound 1 µM
[10] = second compound 0.1 µM, first compound 3.16 µM
[11] = second compound 0.1 µM, first compound 10 µM
[12] = second compound 0.316 µM, first compound 0.0316 µM
[13] = second compound 0.316 µM, first compound 0.1 µM
[14] = second compound 0.316 µM, first compound 0.316 µM
[15] = second compound 0.316 µM, first compound 1 µM
[16] = second compound 0.316 µM, first compound 3.16 µM
[17] = second compound 0.316 µM, first compound 10 µM
[18] = second compound 1 µM, first compound 0.0316 µM
[19] = second compound 1 µM, first compound 0.1 µM
[20] = second compound 1 µM, first compound 0.316 µM
[21] = second compound 1 µM, first compound 1 µM
[22] = second compound 1 µM, first compound 3.16 µM
[23] = second compound 1 µM, first compound 10 µM
[24] = second compound 3.16 µM, first compound 0.0316 µM
[25] = second compound 3.16 µM, first compound 0.1 µM
[26] = second compound 3.16 µM, first compound 0.316 µM
[27] = second compound 3.16 µM, first compound 1 µM
[28] = second compound 3.16 µM, first compound 3.16 µM
[29] = second compound 3.16 µM, first compound 10 µM
[30] = second compound 10 µM, first compound 0.0316 µM
[31] = second compound 10 µM, first compound 0.1 µM
[32] = second compound 10 µM, first compound 0.316 µM
[33] = second compound 10 µM, first compound 1 µM
[34] = second compound 10 µM, first compound 3.16 µM
[35] = second compound 10 µM, first compound 10 µM
[36] = second compound 0.1 µM, first compound 0.00949 µM
[37] = second compound 0.1 µM, first compound 0.03 µM
[38] = second compound 0.1 µM, first compound 0.0949 µM
[39] = second compound 0.1 µM, first compound 0.3 µM
[40] = second compound 0.1 µM, first compound 0.949 µM
[41] = second compound 0.1 µM, first compound 3 µM
[42] = second compound 0.316 µM, first compound 0.00949 µM
[43] = second compound 0.316 µM, first compound 0.03 µM
[44] = second compound 0.316 µM, first compound 0.0949 µM
[45] = second compound 0.316 µM, first compound 0.3 µM
[46] = second compound 0.316 µM, first compound 0.949 µM
[47] = second compound 0.316 µM, first compound 3 µM
[48] = second compound 1 µM, first compound 0.00949 µM
[49] = second compound 1 µM, first compound 0.03 µM
[50] = second compound 1 µM, first compound 0.0949 µM
[51] = second compound 1 µM, first compound 0.3 µM
[52] = second compound 1 µM, first compound 0.949 µM
[53] = second compound 1 µM, first compound 3 µM
[54] = second compound 3.16 µM, first compound 0.00949 µM
[55] = second compound 3.16 µM, first compound 0.03 µM
[56] = second compound 3.16 µM, first compound 0.0949 µM
[57] = second compound 3.16 µM, first compound 0.3 µM
[58] = second compound 3.16 µM, first compound 0.949 µM
[59] = second compound 3.16 µM, first compound 3 µM
[60] = second compound 10 µM, first compound 0.00949 µM
[61] = second compound 10 µM, first compound 0.03 µM
[62] = second compound 10 µM, first compound 0.0949 µM
[63] = second compound 10 µM, first compound 0.3 µM
[64] = second compound 10 µM, first compound 0.949 µM
[65] = second compound 10 µM, first compound 3 µM
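Note: spheroids exposed to agents for 7 days.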
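Throughout, for viability, T/C: 100% = DMSO vehicle control viability.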

CC1COCCN1c1cc(C2(S(C)(=N)=O)CC2)nc(-c2ccnc3[nH]ccc23)n1 (configuration not stated) + NC1CCC(NC2CC2c2ccccc2)CC1
pIC50 [1]: < 5.00
pIC50 [2]: < 5.00
pIC50 [3]: < 5.00
pIC50 [4]: < 5.00
pIC50 [5]: 5.65
viability, T/C [6]: 107%
viability, T/C [7]: 91.1%
viability, T/C [8]: 83.2%
viability, T/C [9]: 89.1%
viability, T/C [10]: 63.4%
viability, T/C [11]: 49.4%
viability, T/C [12]: 105%
viability, T/C [13]: 99%
viability, T/C [14]: 86.9%
viability, T/C [15]: 83%
viability, T/C [16]: 64.1%
viability, T/C [17]: 52.9%
viability, T/C [18]: 88.1%
viability, T/C [19]: 93.4%
viability, T/C [20]: 100%
viability, T/C [21]: 65.3%
viability, T/C [22]: 59.8%
viability, T/C [23]: 60.9%
viability, T/C [24]: 92.6%
viability, T/C [25]: 93.2%
viability, T/C [26]: 98%
viability, T/C [27]: 78.2%
viability, T/C [28]: 63.1%
viability, T/C [29]: 49.5%
viability, T/C [30]: 87.3%
viability, T/C [31]: 88.1%
viability, T/C [32]: 71%
viability, T/C [33]: 62.1%
viability, T/C [34]: 46.1%
viability, T/C [35]: 21.3%

O=C(C=Cn1cnc(-c2cc(C(F)(F)F)cc(C(F)(F)F)c2)n1)NNc1cnccn1
viability, T/C (compound 0.00316 µM): 79.5% and 60.6%
viability, T/C (compound 0.01 µM): 49.6% and 56.1%
viability, T/C (compound 0.0316 µM): 24.6% and 29.2%
viability, T/C (compound 0.1 µM): 15.6% and 17.7%
viability, T/C (compound 0.316 µM): 18.6% and 17.6%
viability, T/C (compound 1 µM): 16.4% and 15.4%
pIC50 (curve of compound): 8.00 and 7.89

O=C(c1cc(Cc2n[nH]c(=O)c3ccccc23)ccc1F)N1CCN(C(=O)C2CC2)CC1 + NC1CCC(NC2CC2c2ccccc2)CC1
pIC50 [1]: < 5.00
pIC50 [2]: < 5.00
pIC50 [3]: < 5.00
pIC50 [4]: < 5.00
pIC50 [5]: < 5.00
viability, T/C [6]: 102%
viability, T/C [7]: 91.2%
viability, T/C [8]: 86.7%
viability, T/C [9]: 92.7%
viability, T/C [10]: 84.3%
viability, T/C [11]: 95.7%
viability, T/C [12]: 99.6%
viability, T/C [13]: 99.9%
viability, T/C [14]: 88.1%
viability, T/C [15]: 85.8%
viability, T/C [16]: 80.1%
viability, T/C [17]: 103%
viability, T/C [18]: 102%
viability, T/C [19]: 98.1%
viability, T/C [20]: 92.5%
viability, T/C [21]: 81.1%
viability, T/C [22]: 79%
viability, T/C [23]: 104%
viability, T/C [24]: 83.8%
viability, T/C [25]: 98.3%
viability, T/C [26]: 113%
viability, T/C [27]: 76.5%
viability, T/C [28]: 86.7%
viability, T/C [29]: 75.7%
viability, T/C [30]: 78.5%
viability, T/C [31]: 104%
viability, T/C [32]: 77.7%
viability, T/C [33]: 74.1%
viability, T/C [34]: 79.6%
viability, T/C [35]: 63.7%

Nc1ccccc1NC(=O)c1ccc(CNC(=O)OCc2cccnc2)cc1 + NC1CC1c1ccc(-c2cccc(O)c2)cc1
pIC50 [1]: 6.49
pIC50 [2]: 6.45
pIC50 [3]: 6.41
pIC50 [4]: 6.51
pIC50 [5]: 6.58
viability, T/C [36]: 86.8%
viability, T/C [37]: 72.7%
viability, T/C [38]: 78.6%
viability, T/C [39]: 53%
viability, T/C [40]: 7.55%
viability, T/C [41]: 0.52%
viability, T/C [42]: 71.1%
viability, T/C [43]: 76.6%
viability, T/C [44]: 76.6%
viability, T/C [45]: 57.4%
viability, T/C [46]: 6.5%
viability, T/C [47]: 0.75%
viability, T/C [48]: 72.1%
viability, T/C [49]: 53%
viability, T/C [50]: 79.3%
viability, T/C [51]: 62.6%
viability, T/C [52]: 6.82%
viability, T/C [53]: 0.31%
viability, T/C [54]: 74.5%
viability, T/C [55]: 77%
viability, T/C [56]: 80.9%
viability, T/C [57]: 50.8%
viability, T/C [58]: 6.44%
viability, T/C [59]: 0.64%
viability, T/C [60]: 79.8%
viability, T/C [61]: 70.2%
viability, T/C [62]: 61.5%
viability, T/C [63]: 50.1%
viability, T/C [64]: 4.95%
viability, T/C [65]: 0.46%

O=C(C=Cc1cccc(S(=O)(=O)Nc2ccccc2)c1)NO + NC1CC1c1ccc(-c2cccc(O)c2)cc1
pIC50 [1]: 7.04
pIC50 [2]: 7.13
pIC50 [3]: > 8.02
pIC50 [4]: 7.19
pIC50 [5]: 6.95
viability, T/C [36]: 67.6%
viability, T/C [37]: 64.1%
viability, T/C [38]: 49.6%
viability, T/C [39]: 36.1%
viability, T/C [40]: 0.36%
viability, T/C [41]: 69.3%
viability, T/C [42]: 58%
viability, T/C [43]: 53.2%
viability, T/C [44]: 48.6%
viability, T/C [45]: 21.1%
viability, T/C [46]: 0.35%
viability, T/C [47]: 59.1%
viability, T/C [48]: 44.8%
viability, T/C [49]: 51%
viability, T/C [50]: 49.6%
viability, T/C [51]: 25%
viability, T/C [52]: 0.46%
viability, T/C [53]: 49.2%
viability, T/C [54]: 49.9%
viability, T/C [55]: 63.3%
viability, T/C [56]: 45.2%
viability, T/C [57]: 25.6%
viability, T/C [58]: 0.37%
viability, T/C [59]: 30.9%
viability, T/C [60]: 66.8%
viability, T/C [61]: 57.6%
viability, T/C [62]: 53.6%
viability, T/C [63]: 29.8%
viability, T/C [64]: 0.44%
viability, T/C [65]: 41.2%

Nc1ccn(C2OC(CO)C(O)C2(F)F)c(=O)n1 (configuration not stated) + NC1CC1c1ccc(-c2cccc(O)c2)cc1
pIC50 [1]: < 6.52
pIC50 [2]: < 6.52
pIC50 [3]: < 6.52
pIC50 [4]: < 6.52
pIC50 [5]: < 6.52
viability, T/C (second compound 0.1 µM, first compound 0.000949 µM): 75.3%
viability, T/C (second compound 0.1 µM, first compound 0.003 µM): 69.9%
viability, T/C [36]: 86.8%
viability, T/C [37]: 59%
viability, T/C [38]: 56%
viability, T/C [39]: 58.3%
viability, T/C (second compound 0.316 µM, first compound 0.000949 µM): 62.5%
viability, T/C (second compound 0.316 µM, first compound 0.003 µM): 83.7%
viability, T/C [42]: 73.7%
viability, T/C [43]: 64.6%
viability, T/C [44]: 64.6%
viability, T/C [45]: 67.9%
viability, T/C (second compound 1 µM, first compound 0.000949 µM): 77.1%
viability, T/C (second compound 1 µM, first compound 0.003 µM): 79.7%
viability, T/C [48]: 79.5%
viability, T/C [49]: 72.8%
viability, T/C [50]: 66.7%
viability, T/C [51]: 57.6%
viability, T/C (second compound 3.16 µM, first compound 0.000949 µM): 74.4%
viability, T/C (second compound 3.16 µM, first compound 0.003 µM): 75.7%
viability, T/C [54]: 83.7%
viability, T/C [55]: 74.1%
viability, T/C [56]: 67.6%
viability, T/C [57]: 85%
viability, T/C (second compound 10 µM, first compound 0.000949 µM): 93.5%
viability, T/C (second compound 10 µM, first compound 0.003 µM): 79%
viability, T/C [60]: 99.7%
viability, T/C [61]: 73.5%
viability, T/C [62]: 70.3%
viability, T/C [63]: 86.8%

— PubChem BioAssay AID1918931 (Molecular Pharmacology Branch, DTP, NCI, 2023)
